Converted amounts (≈) assume the structure as drawn.
How the values were obtained:
[1] = system: HepG2 cells
Protocol: HepG2 cells were aliquoted at a population of 5×10^4 counts per well of 96-well plates and grown at 37° C. in a 5% CO2 incubator for 1 day. The culture medium in each well was replaced with a fresh medium containing the compounds of interest, followed by overnight incubation in the incubator. Following the addition of 100 μl of a 100 μg/ml Neutral red solution into each well, the cells were stained for 3 hours in the incubator and fixed in 1% formaldehyde with 1% CaCl2. The cells were destained in 1% glacial acetic acid plus 50% ethanol, followed by measurement for absorbance at 540 nm. Cytotoxicity was expressed as percentages of optical density relative to that of the control, treated with none of the compounds.

[2] = system: Aspergillus flavus ATCC MYA-1004; assay: In vitro assay for antifungal activity (MIC90); assay type: cell-based; details: RPMI 1640, growth read after 48 hours, duplicate
Protocol: (§1) Fungal strains to be tested were inoculated onto Sabouraud dextrose agar, YM agar, and potato dextrose agar and cultured at 35° C. for two to three days. Individual single colonies of the yeast fungi selected out of the cultured strains were suspended in 5 ml of 0.85% sterile saline, followed by correction to adjust the absorbance thereof at 530 nm to 0.108. The suspensions were diluted serially by 1:50 and then 1:20 in RPMI 1640 media to prepare liquid inocula ranging in cell count from 1.0×10^3 to 5.0×10^3 CFU/ml. As for filamentous fungi, their spores were suspended in 0.85% sterile saline and the suspensions were corrected with sterile saline to show optical transmittance at 530 nm of 80 to 82%. A dilution of 1:50 was made with RPMI 1640 media to prepare liquid inocula having cell counts from […] to 5×10^4 CFU/ml.
(§2) Antifungal samples were prepared by diluting the compounds of the present inventions in RPMI 1640 media to serial concentrations from 0.0625 to 32 μg/ml. As a vehicle, DMSO was contained in a final concentration of 1% (V/V) in the antifungal samples. 0.1 ml of each of the dilutions in series was added to equal volume of each of the fungal inocula.

[3] = system: Aspergillus fumigatus ATCC MYA-1163; assay: In vitro assay for antifungal activity (MIC90); assay type: cell-based; details: RPMI 1640, growth read after 48 hours, duplicate
Protocol: as §1, §2

[4] = system: Aspergillus niger ATCC 9142; assay: In vitro assay for antifungal activity (MIC90); assay type: cell-based; details: duplicate; for MIC90 (concentration at which 90% of the fungi were inhibited compared to the negative control): RPMI 1640, growth read after 48 hours
Protocol: as §1, §2

[5] = system: Aspergillus terreus ATCC 28301; assay: In vitro assay for antifungal activity (MIC90); assay type: cell-based; details: duplicate; for MIC90 (concentration at which 90% of the fungi were inhibited compared to the negative control): RPMI 1640, growth read after 48 hours
Protocol: as §1, §2

[6] = system: Candida albicans ATCC 32033; assay: In vitro assay for antifungal activity (MIC90); assay type: cell-based; details: duplicate; for MIC90 (concentration at which 90% of the fungi were inhibited compared to the negative control): RPMI 1640, growth read after 24 hours
Protocol: as §1, §2

[7] = system: Candida glabrata ATCC 34138; assay: In vitro assay for antifungal activity (MIC90); assay type: cell-based; details: duplicate; for MIC90 (concentration at which 90% of the fungi were inhibited compared to the negative control): RPMI 1640, growth read after 24 hours
Protocol: as §1, §2

[8] = system: Candida krusei ATCC 6258; assay: In vitro assay for antifungal activity (MIC90); assay type: cell-based; details: duplicate; for MIC90 (concentration at which 90% of the fungi were inhibited compared to the negative control): RPMI 1640, growth read after 24 hours
Protocol: as §1, §2

[9] = system: Cryptococcus neoformans ATCC 4065; assay: In vitro assay for antifungal activity (MIC90); assay type: cell-based; details: for MIC90 (concentration at which 90% of the fungi were inhibited compared to the negative control): RPMI 1640, duplicate
Protocol: as §1, §2

[10] = system: Candida albicans (ATCC 36082); assay: In vivo assay for antifungal activity (survival of infected mice); details: ICR mice infected i.v. with Candida albicans ATCC 36082; 20 mg/kg orally once a day for seven days (day 0 to day 6); groups of 10
Protocol: Candida albicans (ATCC 36082) was grown in YM broth on a rotary shaker (200 rpm, 26° C.) for about 12 hours to a concentration of 2.5×10^7 CFU/ml and used to infect ICR mice at a dose of 0.2 ml/head via caudal veins. Suspensions or solutions of the azole compounds in a 25% beta-hydroxypropyl methylcellulose base were orally administered at a dose of 20 mg/kg to respective infected ICR mice in groups of 10, the condition and body weights of the mice were monitored, and autopsies were finally conducted. For a negative control, the vehicle alone was used while fluconazole was administered to a positive control. The mice were inoculated once with the fungal preparation on the day of commencement of the administration. The test materials of interest and the positive control material were orally administered to the inoculated mice once a day for seven days from day 0 to day 6, with the first oral administration made five hours after the fungal inoculation (day 0). The periods of time for which the infected mice lived were counted.
The number of mice which survived the fungal infection for 21 days following the inoculation was represented as % survival for each test group, and the results are given in Table 11, below. All members of the negative control were dead 8 days after the fungal infection, while all of the groups administered with Compound 50 were dead 18 days after the fungal infection.

[11] = Assay for acute toxicity; assay type: in vivo; details: mice; oral administration, to a dose of 1000 mg/kg; observed for two weeks; suspension in 25% beta-hydroxypropyl methylcellulose base or polyethylene glycol 400
[12] = read-out: MIC90 (concentration at which 90% of the fungi were inhibited compared to the negative control)

C[C@@H](n1nc(Cl)c2ccccc21)[C@](O)(Cn1cncn1)c1ccc(F)cc1F [Example 52]
Cytotoxicity (percentages of optical density relative to that of the control) [1]: 5.6%

C[C@@H](n1cc2cc(Br)ccc2n1)[C@](O)(Cn1cncn1)c1ccc(F)cc1F [Example 60]
MIC90 (concentration at which 90% of the fungi were inhibited compared to the negative control) [2]: 1 µg/mL
MIC90 (concentration at which 90% of the fungi were inhibited compared to the negative control) [3]: 0.5 µg/mL
MIC90 (concentration at which 90% of the fungi were inhibited compared to the negative control) [4]: 1 µg/mL
MIC90 (concentration at which 90% of the fungi were inhibited compared to the negative control) [5]: 1 µg/mL
MIC90 (concentration at which 90% of the fungi were inhibited compared to the negative control) [6]: ≦0.015 μg/ml
MIC90 (concentration at which 90% of the fungi were inhibited compared to the negative control) [7]: 2 µg/mL
MIC90 (concentration at which 90% of the fungi were inhibited compared to the negative control) [8]: 1 µg/mL
MIC90 (concentration at which 90% of the fungi were inhibited compared to the negative control) [9]: 1 µg/mL
% Survival on Day 21 [10]: 10%
acute toxicity: toxic syndromes observed [11]: no toxic syndromes

Cc1c2c(Cl)cccc2nn1[C@H](C)[C@](O)(Cn1cncn1)c1ccc(F)cc1F [Example 68]
Cytotoxicity (percentages of optical density relative to that of the control) [1]: 2.4%

Cc1nn([C@H](C)[C@](O)(Cn2cncn2)c2ccc(F)cc2F)c2cccc(Cl)c12 [Example 69]
Cytotoxicity (percentages of optical density relative to that of the control) [1]: 1.6%

C[C@@H](n1ncc2cc([N+](=O)[O-])ccc21)[C@](O)(Cn1cncn1)c1ccc(F)cc1F [Example 234, (2R,3R)-2-(2,4-difluorophenyl)-3-(5-nitro-1H-indazol-1-yl)-1-(1H-1,2,4-triazol-1-yl)butan-2-ol]
MIC90 [2, 12]: 1 µg/mL (≈ 2.41 µM)
MIC90 [3, 12]: 2 µg/mL (≈ 4.83 µM)
MIC90 ([4]; ATCC9142, RPMI 1640, growth read after 48 hours, read-out: MIC90 (concentration at which 90% of the fungi were inhibited compared to the negative control)): 2 µg/mL (≈ 4.83 µM)
MIC90 ([5]; ATCC28301, RPMI 1640, growth read after 48 hours, read-out: MIC90 (concentration at which 90% of the fungi were inhibited compared to the negative control)): 2 µg/mL (≈ 4.83 µM)
MIC90 ([6]; ATCC32033, RPMI 1640, growth read after 24 hours, read-out: MIC90 (concentration at which 90% of the fungi were inhibited compared to the negative control)): ≤ 0.015 µg/mL
MIC90 ([7]; Nakaseomyces glabratus, ATCC34138, RPMI 1640, growth read after 24 hours, read-out: MIC90 (concentration at which 90% of the fungi were inhibited compared to the negative control)): 4 µg/mL (≈ 9.65 µM)
MIC90 ([8]; Pichia kudriavzevii, ATCC6258, RPMI 1640, growth read after 24 hours, read-out: MIC90 (concentration at which 90% of the fungi were inhibited compared to the negative control)): 0.5 µg/mL (≈ 1.21 µM)
MIC90 ([9]; ATCC4065, RPMI 1640, duplicate, read-out: MIC90 (concentration at which 90% of the fungi were inhibited compared to the negative control)): 0.125 µg/mL (≈ 0.302 µM)
% Survival on Day 21 [10]: 40%
acute toxicity: toxic syndromes observed [11]: no toxic syndromes

C[C@@H](n1ncc2cc(NCc3cccc(Cl)c3)ccc21)[C@](O)(Cn1cncn1)c1ccc(F)cc1F [Example 240]
Cytotoxicity (percentages of optical density relative to that of the control) [1]: 5.2%

C[C@@H](n1ncc2cc(N(C)C)ccc21)[C@](O)(Cn1cncn1)c1ccc(F)cc1F [Example 310]
MIC90 (concentration at which 90% of the fungi were inhibited compared to the negative control) [2]: 1 µg/mL
MIC90 (concentration at which 90% of the fungi were inhibited compared to the negative control) [3]: 2 µg/mL
MIC90 (concentration at which 90% of the fungi were inhibited compared to the negative control) [4]: 2 µg/mL
MIC90 (concentration at which 90% of the fungi were inhibited compared to the negative control) [5]: 2 µg/mL
MIC90 (concentration at which 90% of the fungi were inhibited compared to the negative control) [6]: 0.063 µg/mL
MIC90 (concentration at which 90% of the fungi were inhibited compared to the negative control) [7]: 8 µg/mL
MIC90 (concentration at which 90% of the fungi were inhibited compared to the negative control) [8]: 1 µg/mL
MIC90 (concentration at which 90% of the fungi were inhibited compared to the negative control) [9]: 0.5 µg/mL
% Survival on Day 21 [10]: 40%
acute toxicity: toxic syndromes observed [11]: no toxic syndromes

Source: patent publication US7812045B2, “Antifungal triazole derivatives” (Daewoong Pharmaceutical Co., Ltd., priority 2005, dated 2010)
